{"source": "paper PMC8654832", "about": "(Scientific Reports, 2021)", "key": {"[1]": {"target": "T1, hCK2α (Homo sapiens, UniProt P68400)", "T1 construct": "made in house; host or cells: Escherichia coli BL21(DE3), plasmid pET28", "T1 sequence (P68400 whole entry)": "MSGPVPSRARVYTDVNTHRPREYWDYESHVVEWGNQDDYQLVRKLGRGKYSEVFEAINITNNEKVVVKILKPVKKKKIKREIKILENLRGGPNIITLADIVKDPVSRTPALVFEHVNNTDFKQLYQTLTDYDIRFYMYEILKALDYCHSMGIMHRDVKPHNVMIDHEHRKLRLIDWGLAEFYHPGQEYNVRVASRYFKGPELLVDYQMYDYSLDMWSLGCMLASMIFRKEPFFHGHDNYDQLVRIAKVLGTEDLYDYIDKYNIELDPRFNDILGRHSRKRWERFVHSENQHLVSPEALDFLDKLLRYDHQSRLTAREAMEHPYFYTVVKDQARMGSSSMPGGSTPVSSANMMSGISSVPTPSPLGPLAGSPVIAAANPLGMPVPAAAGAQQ", "assay": "In vitro inhibition of hCK2α, ADP-Glo kinase assay", "format": "biochemical", "details": "10 μM ATP, 10 μM peptide […], 20 min at 30 °C", "procedure": "The compound inhibitory activity was monitored based on the luminescence measured with the SpectraMax iD3 Multi-Mode Microplate Reader (Molecular Devices, San Jose, CA, USA), using the previously described method with the aid of ADP-Glo kinase assay (Promega, Walldorf, Germany)[35]. The measurements were carried in 96-well plate in volume of 25 μl in 20 mM Tris–HCl buffer (pH 7.5), containing 100 ng of hCK2α (1 μl), 10 μM CK2 substrate peptide […] (Biaffin GmbH & Co KG), 10 μM ATP, 20 mM MgCl2 and 2.5 μl of ligand serially diluted in DMSO. The reaction was initiated by adding the enzyme and kept going for 20 min at 30 °C."}, "[2]": {"tested_on": "HCT116 (colorectal carcinoma)", "assay": "Cell viability, MTT assay", "details": "read-out: Cell viability data, IC50"}, "[3]": {"tested_on": "A-431 (epidermoid carcinoma)", "assay": "Cell viability, MTT assay", "details": "read-out: Cell viability data, IC50"}, "[4]": {"assay": "Dynamic light scattering (DLS), aggregation in aqueous medium", "format": "physicochemical", "details": "25 mM Tris–HCl pH 8, 0.5 M NaCl, 2% DMSO, 25 °C", "procedure": "Experiments were carried out at 25 °C with the DynaPro NanoStar 192-DPN apparatus (Wyatt Technology) equipped with 661 nm laser. The autocorrelation function for the light scattered by solute placed in Eppendorf disposable cuvettes (50–2000 μl) was measured in the range of 0.5 μs– 0.1 s at solute concentration for which short-time ACF signal approached 0.2. Solutions with 2% (v/v) DMSO content were prepared in 25 mM Tris–HCl (pH 8, 0.5 M NaCl) filtered with 220 nm pore size syringe filter. All samples were centrifuged (9000 g) for 3 min immediately before the experiment."}, "[5]": {"target": "T2, catalytic subunit of human protein kinase CK2 (hCK2α) (Homo sapiens, UniProt P68400)", "T2 sequence (P68400 whole entry)": "as above", "assay": "Microscale thermophoresis (MST) pseudo-titration", "format": "binding", "parameters": "made in house; host or cells: Escherichia coli BL21(DE3), plasmid pET28", "procedure": "Samples of protein (50 nM in 25 mM Hepes buffer pH 8 with 0.5 M NaCl and 1%DMSO content v/v) labeled with Monolith His-Tag Labeling Kit RED-tris-NTA kit (NanoTemper Technologies) were prepared with varying ligand concentration according to previously described protocol. The measurements were performed using Monolith NT.115 (NanoTemper Technologies) apparatus in standard capillaries (Nanotemper Technologies). For each ligand six independent pseudo-titration experiments, each with 16 ligand dilutions, were performed. […] The model of two independent binding sites, implemented in origin, has been already described and tested. It is worth noting that the used method of data treatment goes beyond the standard MST software capabilities."}, "[6]": {"tested_on": "HEPG2 (hepatocellular carcinoma)", "assay": "Cell viability, MTT assay", "details": "read-out: Cell viability data, IC50"}, "[7]": {"target": "T2, catalytic subunit of human protein kinase CK2 (hCK2α)", "parameters": "made in house; host or cells: Escherichia coli BL21(DE3), plasmid pET28", "details": "DSF, binding to hCK2α, cited from earlier work"}, "[8]": {"tested_on": "mitochondrial inner membrane potential (ΔΨ)", "assay": "Mitochondrial inner membrane potential, Rhodamine 123 fluorescence quenching in isolated mitochondria", "details": "for ligand concentration required to recover 50% of the initial fluorescence drop: Rhodamine 123, yeast mitochondria energized with EtOH, normalized to CCCP; for ligand concentration at which relative fluorescence c.a. 0.95 was reached / ligand concentration at which the membrane potential is almost fully uncoupled: Rhodamine 123, yeast mitochondria; for ligand concentration at which relative fluorescence c.a. 0.95 was reached: 1 = fully uncoupled (CCCP)", "excerpt": "In response to variations in ΔΨ this dye accumulates proportionally inside the mitochondrial matrix, where its fluorescence is quenched, thus fluorescence changes reflect the changes in the IM potential[33],[34]. […] All the data were normalized relative to the fluorescence intensity after addition CCCP (set to 1).\nTo quantify the effect of ligand addition we have compared the ligand concentrations required to recover 50% of the initial fluorescence drop (dotted line), i.e. the average of value after addition of EtOH and fully decoupled ΔΨ.\nAt the end of each experiment the carbonyl cyanide-m-chlorophenyl hydrazone (CCCP, the IM potential uncoupler) was added at 4 μM for the normalization."}, "[9]": {"tested_on": "HCT116p53-/- (colorectal carcinoma)", "assay": "Cell viability, MTT assay", "details": "72 h, read-out: Cell viability data, IC50"}, "[10]": {"target": "T2, catalytic subunit of human protein kinase CK2 (hCK2α)", "assay": "Isothermal titration calorimetry (ITC), reverse mode"}, "[11]": {"details": "second, weak site (solvent exposed region at alpha/beta interface), read-out: Kd2"}, "[12]": {"details": "strongly binding site (ATP-binding site), pH 8, 0.5 M NaCl, 1% DMSO, read-out: Kd1"}}, "note": "Like-named read-outs stand apart in the source and are kept apart here."}
{"molecule": "Brc1c(I)c(I)c(Br)c2[nH]nnc12", "note": "[BIIB, 4,7-dibromo-5,6-diiodo-1H-benzotriazole]", "values": [{"measurement": "IC50", "setting": "[1]", "result": "0.23 ± 0.15", "unit": "µM"}, {"measurement": "IC50", "setting": "[2]; Homo sapiens, HCT-116, 72 h", "result": "1.8 ± 0.3", "unit": "µM"}, {"measurement": "IC50", "setting": "[3]; Homo sapiens, A-431, 72 h", "result": "2.2 ± 0.3", "unit": "µM"}, {"measurement": "solute concentration at which the similar ACF distribution (nano-aggregates, radius 50–100 nm) was observed", "setting": "[4]", "result": 40, "unit": "µM"}, {"measurement": "Kd", "setting": "[5]; [11]", "result": "0.043 ± 0.022", "unit": "µM"}, {"measurement": "Kd", "setting": "[5]; [12]", "result": "0.003 ± 0.006", "unit": "µM"}, {"measurement": "IC50", "setting": "[6]; Homo sapiens, HepG2, 72 h", "result": "1.5 ± 0.3", "unit": "µM"}, {"measurement": "ΔTm", "setting": "[7]; literature data ref 20", "result": "10.8 ± 0.1[20] K"}, {"measurement": "ligand concentration required to recover 50% of the initial fluorescence drop", "setting": "[8]", "result": "less than 2 µM"}, {"measurement": "ligand concentration at which relative fluorescence c.a. 0.95 was reached", "setting": "[8]", "result": "~4", "unit": "µM"}, {"measurement": "IC50", "setting": "[9]; Homo sapiens", "result": "2.5 ± 0.2", "unit": "µM"}, {"measurement": "Kd", "setting": "[10]", "result": "0.0013 ± 0.0014", "unit": "µM"}, {"measurement": "ΔS1", "setting": "[10]; ITC, 25 °C, strongly binding site", "result": "123 ± 10", "unit": "J/mol/K"}, {"measurement": "ΔS2", "setting": "[10]; ITC, second site", "result": "93 ± 5", "unit": "J/mol/K"}, {"measurement": "Kd", "setting": "[10]; read-out: Kd2, ITC, second site (solvent exposed region at alpha/beta interface)", "result": "0.082 ± 0.042", "unit": "µM"}]}
{"molecule": "Brc1cc2nn[nH]c2cc1Br", "note": "[HBBH, 5,6-dibromo-1H-benzotriazole, reference compound]", "values": [{"measurement": "IC50", "setting": "[1]", "result": "1.19 ± 0.53", "unit": "µM"}, {"measurement": "IC50", "setting": "[2]; Homo sapiens, HCT-116, 72 h", "result": "19 ± 6", "unit": "µM"}, {"measurement": "IC50", "setting": "[3]; Homo sapiens, A-431, 72 h", "result": "12 ± 2", "unit": "µM"}, {"measurement": "solute concentration at which the similar ACF distribution (nano-aggregates, radius 50–100 nm) was observed", "setting": "[4]", "result": 160, "unit": "µM"}, {"measurement": "Kd", "setting": "[5]; [11]", "result": "0.327 ± 0.095", "unit": "µM"}, {"measurement": "Kd", "setting": "[5]; [12]", "result": "0.029 ± 0.013", "unit": "µM"}, {"measurement": "IC50", "setting": "[6]; Homo sapiens, HepG2, 72 h", "result": "18 ± 4", "unit": "µM"}, {"measurement": "ΔTm", "setting": "[7]; literature data ref 18", "result": "7.4 ± 0.1[18] K"}, {"measurement": "ligand concentration at which the membrane potential is almost fully uncoupled", "setting": "[8]", "result": "~15", "unit": "µM"}, {"measurement": "ligand concentration required to recover 50% of the initial fluorescence drop", "setting": "[8]", "result": "> 5", "unit": "µM"}, {"measurement": "ligand concentration at which relative fluorescence c.a. 0.95 was reached", "setting": "[8]", "result": "~12", "unit": "µM"}, {"measurement": "IC50", "setting": "[9]; Homo sapiens", "result": "13 ± 3", "unit": "µM"}, {"measurement": "Kd", "setting": "[10]", "result": "0.034 ± 0.004", "unit": "µM"}]}
{"molecule": "Ic1cc2nn[nH]c2cc1I", "note": "[HIIH, 5,6-diiodo-1H-benzotriazole]", "values": [{"measurement": "IC50", "setting": "[1]", "result": "0.78 ± 0.29", "unit": "µM"}, {"measurement": "IC50", "setting": "[2]; Homo sapiens, HCT-116, 72 h", "result": "6.1 ± 1.3", "unit": "µM"}, {"measurement": "IC50", "setting": "[3]; Homo sapiens, A-431, 72 h", "result": "5.3 ± 0.7", "unit": "µM"}, {"measurement": "Kd", "setting": "[5]; [11]", "result": "0.374 ± 0.083", "unit": "µM"}, {"measurement": "Kd", "setting": "[5]; [12]", "result": "0.015 ± 0.007", "unit": "µM"}, {"measurement": "IC50", "setting": "[6]; Homo sapiens, HepG2, 72 h", "result": "3.3 ± 0.4", "unit": "µM"}, {"measurement": "ΔTm", "setting": "[7]; literature data ref 20", "result": "8.3 ± 0.1[20] K"}, {"measurement": "ligand concentration at which the membrane potential is almost fully uncoupled", "setting": "[8]", "result": "~15", "unit": "µM"}, {"measurement": "ligand concentration required to recover 50% of the initial fluorescence drop", "setting": "[8]", "result": "> 5", "unit": "µM"}, {"measurement": "ligand concentration at which relative fluorescence c.a. 0.95 was reached", "setting": "[8]", "result": "~12", "unit": "µM"}, {"measurement": "IC50", "setting": "[9]; Homo sapiens", "result": "9.4 ± 1.4", "unit": "µM"}, {"measurement": "Kd", "setting": "[10]", "result": "0.022 ± 0.004", "unit": "µM"}]}
{"molecule": "Brc1c(Br)c(Br)c2[nH]nnc2c1Br", "note": "[TBBt, 4,5,6,7-tetrabromo-1H-benzotriazole]", "values": [{"measurement": "IC50", "setting": "[2]; Homo sapiens, HCT-116, 72 h", "result": "23 ± 9", "unit": "µM"}, {"measurement": "IC50", "setting": "[3]; Homo sapiens, A-431, 72 h", "result": "7.8 ± 1.2", "unit": "µM"}, {"measurement": "IC50", "setting": "[6]; Homo sapiens, HepG2, 72 h", "result": "13 ± 2", "unit": "µM"}, {"measurement": "IC50", "setting": "[9]; Homo sapiens", "result": "48 ± 18", "unit": "µM"}]}
{"molecule": "N.N.[Cl][Pt][Cl]", "note": "[cisPt, cisplatin]", "values": [{"measurement": "IC50", "setting": "[2]; HCT116, MTT, 72 h, fitted to restricted low-concentration data", "result": "4.7 ± 0.6", "unit": "µM"}, {"measurement": "IC50", "setting": "[3]; A-431, MTT, 72 h, fitted to restricted low-concentration data", "result": "2.02 ± 0.06", "unit": "µM"}, {"measurement": "IC50", "setting": "[6]; HEPG2, MTT, 72 h, fitted to restricted low-concentration data", "result": "2.43 ± 0.14", "unit": "µM"}, {"measurement": "IC50", "setting": "[9]; HCT116p53-/-, MTT, fitted to restricted low-concentration data", "result": "2.94 ± 0.13", "unit": "µM"}]}
